Data published in BindingDB's records for patent US20240025883 (Hoffmann-La Roche, 2024).

target: Uracil nucleotide/cysteinyl leukotriene receptor (Homo sapiens, UniProt Q13304); test: GPR17 cAMP Assay Protocol
Method: GPR17 cAMP Assay Protocol: CHO-K1 cells stably expressing vector containing untagged human GPR17 short isoform (Roche) were cultured at 37° C./5% CO2 in DMEM (Dulbecco's Modified Eagle Medium):F-12 (1:1) supplemented with 10% foetal bovine serum and 400 μg/ml Geneticin. Changes in intracellular cyclic adenosine monophosphate (cAMP) levels were quantified using the Nano-TRF Detection Assay kit (Roche Diagnostics, Cat. No. 05214386001). This assay allows for direct cAMP quantification in a homogeneous solution, cAMP is detected based on time-resolved fluorescence energy transfer (TR-FRET) and competitive binding of ruthenylated cAMP and endogenous cAMP to an anti-cAMP monoclonal antibody labeled with AlexaFluor-700. The Ruthenium complex serves as the FRET donor and transfers energy to AlexaFluor-700. The FRET signal is inversely proportional to the cAMP concentration. CHO-GPR17S cells were detached with Accutase and resuspended in assay buffer consisting of Hank's Balanced Salt Solution (HBSS), 10 mM HEPES (4-(2-hydroxyethyl) piperazine-1-ethanesulfonic acid solution) and 0.1% bovine serum albumin (pH 7.4). The cells were seeded in black 384-well plates (Corning) at a density of 10,000 cells/20 μl assay buffer until the addition of compounds.

Chain of Uracil nucleotide/cysteinyl leukotriene receptor (Q13304 whole entry, canonical isoform): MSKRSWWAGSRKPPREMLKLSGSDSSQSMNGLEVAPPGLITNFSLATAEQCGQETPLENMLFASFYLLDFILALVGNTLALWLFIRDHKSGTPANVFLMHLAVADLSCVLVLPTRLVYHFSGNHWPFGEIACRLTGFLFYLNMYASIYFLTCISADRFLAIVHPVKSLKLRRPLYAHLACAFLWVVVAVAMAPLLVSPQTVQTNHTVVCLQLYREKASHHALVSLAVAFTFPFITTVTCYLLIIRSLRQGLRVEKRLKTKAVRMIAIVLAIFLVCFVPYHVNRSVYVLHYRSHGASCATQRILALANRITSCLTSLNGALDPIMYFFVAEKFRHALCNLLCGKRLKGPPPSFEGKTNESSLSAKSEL

IC50	Structure (SMILES)
17 nM	COc1nc(NS(=O)(=O)c2c[nH]c3cc(Cl)ccc23)nc(OC)c1OCC(F)F [US20240025883, Example 54]
17 nM	COc1nc(NS(=O)(=O)c2c[nH]c3cc(Cl)ccc23)nc(OC)c1OC(F)(F)CF [US20240025883, Example 55]
66 nM	COc1nc(NS(=O)(=O)c2c[nH]c3cc(F)ccc23)nc(OC)c1OC(F)(F)CF [US20240025883, Example 87]
68 nM	COc1nc(NS(=O)(=O)c2c[nH]c3nc(C(F)F)ccc23)nc(OC)c1OCCF [US20240025883, Example 95]
29 nM	COc1nc(NS(=O)(=O)c2c[nH]c3nc(C(F)F)ccc23)nc(OC)c1OCC(F)F [US20240025883, Example 96]
50 nM	COc1nc(NS(=O)(=O)c2c[nH]c3nc(C(F)F)ccc23)nc(OC)c1OC(F)(F)CF [US20240025883, Example 97]
14 nM	COc1nc(NS(=O)(=O)c2c[nH]c3cc(C(F)F)ccc23)nc(OC)c1OCC(F)F [US20240025883, Example 102]
96 nM	COc1nc(NS(=O)(=O)c2c[nH]c3cc(SC)ccc23)ncc1CC(F)F [US20240025883, Example 193]
32 nM	COc1nc(NS(=O)(=O)c2c[nH]c3c(C#N)c(Cl)ccc23)nc(OC)c1OCCF [US20240025883, Example 225]
35 nM	COc1nc(NS(=O)(=O)c2c[nH]c3c(C#N)c(Cl)ccc23)nc(OC)c1OCC(F)F [US20240025883, Example 226]
22 nM	COc1nc(NS(=O)(=O)c2c[nH]c3c(C#N)c(Cl)ccc23)nc(OC)c1CC(F)F [US20240025883, Example 227]
161 nM	COc1nc(NS(=O)(=O)c2c[nH]c3c4c(ccc23)COC4)ncc1CC(F)F [US20240025883, Example 228]
